In patent publication US9458447B2, “MPHOSPH1 peptides and vaccines including the same” (OncoTherapy Science, Inc., priority 2011, dated 2016):
Where no end group is shown, it is not given here.

Tested on: T2 cells
Test: Cytotoxic activity of CTL clone, 51Cr-release, MPHOSPH1-negative control
Assay type: cell-based, human
Conditions: express HLA-A*0201 but not MPHOSPH1
Description: (§1) The CTL clones were examined for their ability to kill the tumor cells endogenously expressing MPHOSPH1 and HLA-A*0201. Target cells (tumor cell lines) were labeled with 100 micro-Ci of Na2^51CrO4 (Perkin Elmer) for 1 hr in CO2 incubator. Peptide-pulsed target cells were prepared by incubating the cells with 20 microgram/ml of the peptide for 16 hrs before labeling. Target cells labeled with ^51Cr were rinsed and mixed with CTL clones in a final volume of 200 microliter in 96-well round-bottom microtiter plates. The plates were centrifuged (4 minutes at 800 rpm) to increase cell-to-cell contact and placed into CO2 incubator. After 4 hrs of incubation, 50 microliter of the supernatant was collected from each well and the radioactivity was determined with a gamma counter (PerkinElmer). The percentage of specific cytotoxicity was determined by calculating the percentage of specific ^51Cr-release by the following formula: {(cpm of the test sample release−cpm of the spontaneous release)/(cpm of the maximum release−cpm of the spontaneous release)}×100. Spontaneous release was determined by incubating the target cells alone, in the absence of effector cells. The maximum release was obtained by incubating the targets with 1N HCl. All measurements were done in duplicate.

Row | Substance | Cytotoxic activity of CTL clone
1 | YIYDLFVPVS [SEQ ID NO: 120, YIYDLFVPVS] | no significant cytotoxic activity was detected

Tested on: T2 cells pulsed with the corresponding peptide
Test: IFN-gamma ELISA of established CTL lines
Assay type: cell-based, human
Conditions: T2 cells pulsed with corresponding peptide vs T2 cells without peptide pulse
Description: CTLs were expanded in culture using the method similar to the one described by Riddell et al. (Walter E A et al., N Engl J Med 1995 Oct. 19, 333(16): 1038-44; Riddell S R et al., Nat Med 1996 February, 2(2): 216-23). A total of 5×10^4 CTLs were suspended in 25 ml of AIM-V/5% AS medium with 2 kinds of human B-lymphoblastoid cell lines, inactivated by Mitomycin C, in the presence of 40 ng/ml of anti-CD3 monoclonal antibody (Pharmingen). One day after initiating the cultures, 120 IU/ml of IL-2 were added to the cultures. The cultures were fed with fresh AIM-V/5% AS medium containing 30 IU/ml of IL-2 on days 5, 8 and 11 (Tanaka H et al., Br J Cancer 2001 Jan. 5, 84(1): 94-9; Umano Y et al., Br J Cancer 2001 Apr. 20, 84(8): 1052-7; Uchida N et al., Clin Cancer Res 2004 Dec. 15, 10(24): 8577-86; Suda T et al., Cancer Sci 2006 May, 97(5): 411-9; Watanabe T et al., Cancer Sci 2005 August, 96(8): 498-506).
(§2) To examine specific CTL activity, interferon(IFN)-gamma enzyme-linked immunospot (ELISPOT) assay and IFN-gamma enzyme-linked immunosorbent assay (ELISA) were performed. Peptide-pulsed T2 (1×10^4/well) was prepared as stimulator cells. Cultured cells in 48-well plate, CTL lines and CTL clones were used as responder cells. IFN-gamma ELISPOT assay and IFN-gamma ELISA assay were performed under manufacture procedure.

Row | Substance | IFN-gamma production of CTL lines by IFN-gamma ELISA
2 | GLRAFLLTI (a peptide derived from MPHOSPH1) [SEQ ID NO: 64] | potent IFN-gamma production against T2 cells pulsed with the corresponding peptide
3 | FQGCIMQPV (a peptide derived from MPHOSPH1) [SEQ ID NO: 14] | potent IFN-gamma production against T2 cells pulsed with the corresponding peptide
4 | KLSNeIETAT (KLSNEIETAT; not fully specified (residue 5); printed as KLSNeIETAT) [SEQ ID NO: 97] | potent IFN-gamma production against T2 cells pulsed with the corresponding peptide
5 | FLLTIENEL (a peptide derived from MPHOSPH1) [SEQ ID NO: 5] | potent IFN-gamma production against T2 cells pulsed with the corresponding peptide
6 | KLICnETVEV (KLICNETVEV; not fully specified (residue 5); printed as KLICnETVEV) [SEQ ID NO: 77] | potent IFN-gamma production against T2 cells pulsed with the corresponding peptide
7 | LLTLgKCINV (LLTLGKCINV; not fully specified (residue 5); printed as LLTLgKCINV) [SEQ ID NO: 79] | potent IFN-gamma production against T2 cells pulsed with the corresponding peptide
8 | QLVAaLEIQL (QLVAALEIQL; not fully specified (residue 5); printed as QLVAaLEIQL) [SEQ ID NO: 103] | potent IFN-gamma production against T2 cells pulsed with the corresponding peptide
9 | YLAYdETLNV (YLAYDETLNV; not fully specified (residue 5); printed as YLAYdETLNV) [SEQ ID NO: 73] | potent IFN-gamma production against T2 cells pulsed with the corresponding peptide

Tested on: MKN45 cells
Test: Cytotoxic activity of CTL clone, 51Cr-release, HLA-A*0201-negative control
Assay type: cell-based, human
Conditions: express MPHOSPH1 but not HLA-A*0201
Description: as §1

Row | Substance | Cytotoxic activity of CTL clone
10 | YIYDLFVPVS [SEQ ID NO: 120, YIYDLFVPVS] | no significant cytotoxic activity was detected

Tested on: peptide-pulsed T2 cells
Test: IFN-gamma ELISPOT assay of CTLs induced with peptide-pulsed DCs
Assay type: cell-based, human
Conditions: CTLs from HLA-A*0201 positive donor after 3rd peptide stimulation, day 21; peptide-pulsed T2 vs control wells
Excerpt: Monocyte-derived dendritic cells (DCs) were used as antigen-presenting cells to induce cytotoxic T lymphocyte (CTL) that responses against peptides presented on human leukocyte antigen (HLA). DCs were generated in vitro as described elsewhere (Nakahara S et al., Cancer Res 2003 Jul. 15, 63(14): 4112-8). Specifically, peripheral blood mononuclear cells isolated from a normal volunteer (HLA-A*0201 positive) by Ficoll-Paque plus (Pharmacia) solution were separated by adherence to a plastic tissue culture dish (Becton Dickinson) so as to enrich them as the monocyte fraction. The monocyte-enriched population was cultured in the presence of 1000 U/ml of granulocyte-macrophage colony-stimulating factor (R&D System) and 1000 U/ml of interleukin (IL)-4 (R&D System) in AIM-V Medium (Invitrogen) containing 2% heat-inactivated autologous serum (AS). After 7 days of culture, the cytokine-induced DCs were pulsed with 20 microgram/ml of each of the synthesized peptides in the presence of 3 microgram/ml of beta 2-microglobulin for 3 hr at 37 degrees C. in AIM-V Medium. The generated cells appeared to express DC-associated molecules, such as CD80, CD83, CD86 and HLA class II, on their cell surfaces (data not shown). These peptide-pulsed DCs were then inactivated by X ray-irradiated (20 Gy) and mixed at a 1:20 ratio with autologous CD8^+ T cells, obtained by positive selection with CD8 Positive Isolation Kit (Dynal). These cultures were set up in 48-well plates (Corning); each well contained 1.5×10^4 peptide-pulsed DCs, 3×10^5 CD8^+ T cells and 10 ng/ml of IL-7 (R&D System) in 0.5 ml of AIM-V/2% AS medium. Three days later, these cultures were supplemented with IL-2 (CHIRON) to a final concentration of 20 IU/ml. On day 7 and 14, the T cells were further stimulated with the autologous peptide-pulsed DCs. The DCs were prepared each time by the same way described above. CTL was tested against peptide-pulsed T2 cells after the 3rd round of peptide stimulation on day 21 (Tanaka H et al., Br J Cancer 2001 Jan. 5, 84(1): 94-9; Umano Y et al., Br J Cancer 2001 Apr. 20, 84(8): 1052-7; Uchida N et al., Clin Cancer Res 2004 Dec. 15, 10(24): 8577-86; Suda T et al., Cancer Sci 2006 May, 97(5): 411-9; Watanabe T et al., Cancer Sci 2005 August, 96(8): 498-506).
as §2

Row | Substance | Peptide specific CTL activity (IFN-gamma production) by IFN-gamma ELISPOT
11 | KLLDLIEDL (a peptide derived from MPHOSPH1) [SEQ ID NO: 1] | no specific IFN-gamma production was observed
12 | GLRAFLLTI (a peptide derived from MPHOSPH1) [SEQ ID NO: 64] | potent IFN-gamma production as compared to the control wells
13 | FQGCIMQPV (a peptide derived from MPHOSPH1) [SEQ ID NO: 14] | potent IFN-gamma production as compared to the control wells
14 | KLSNeIETAT (KLSNEIETAT; not fully specified (residue 5); printed as KLSNeIETAT) [SEQ ID NO: 97] | potent IFN-gamma production as compared to the control wells
15 | FLLTIENEL (a peptide derived from MPHOSPH1) [SEQ ID NO: 5] | potent IFN-gamma production as compared to the control wells
16 | KLICnETVEV (KLICNETVEV; not fully specified (residue 5); printed as KLICnETVEV) [SEQ ID NO: 77] | potent IFN-gamma production as compared to the control wells
17 | LLTLgKCINV (LLTLGKCINV; not fully specified (residue 5); printed as LLTLgKCINV) [SEQ ID NO: 79] | potent IFN-gamma production as compared to the control wells
18 | QLVAaLEIQL (QLVAALEIQL; not fully specified (residue 5); printed as QLVAaLEIQL) [SEQ ID NO: 103] | potent IFN-gamma production as compared to the control wells
19 | YLAYdETLNV (YLAYDETLNV; not fully specified (residue 5); printed as YLAYdETLNV) [SEQ ID NO: 73] | potent IFN-gamma production as compared to the control wells

Tested on: UMUC-3 cells
Test: Cytotoxic activity of CTL clone, 51Cr-release
Assay type: cell-based, human
Conditions: express both MPHOSPH1 and HLA-A*0201
Description: as §1

Row | Substance | Cytotoxic activity of CTL clone
20 | YIYDLFVPVS [SEQ ID NO: 120, YIYDLFVPVS] | potent cytotoxic activity

Tested on: T2 cells pulsed with corresponding peptide
Test: IFN-gamma ELISA of CTL clones established by limiting dilution
Assay type: cell-based, human
Conditions: not given
Description: The dilutions were made to have 0.3, 1, and 3 CTLs/well in 96 round-bottomed micro titer plate (Nalge Nunc International). CTLs were cultured with 1×10^4 cells/well of 2 kinds of human B-lymphoblastoid cell lines, 30 ng/ml of anti-CD3 antibody, and 125 U/ml of IL-2 in a total of 150 microliter/well of AIM-V Medium containing 5% AS. 50 microliter/well of IL-2 were added to the medium 10 days later to reach a final concentration of 125 U/ml IL-2. CTL activity was tested on the 14th day, and CTL clones were expanded using the same method as described above (Uchida N et al., Clin Cancer Res 2004 Dec. 15, 10(24): 8577-86; Suda T et al., Cancer Sci 2006 May, 97(5): 411-9; Watanabe T et al., Cancer Sci 2005 August, 96(8): 498-506).
as §2

Row | Substance | IFN-gamma production from CTL clones by IFN-gamma ELISA
21 | GLRAFLLTI (a peptide derived from MPHOSPH1) [SEQ ID NO: 64] | Potent IFN-gamma production was observed
22 | FLLTIENEL (a peptide derived from MPHOSPH1) [SEQ ID NO: 5] | Potent IFN-gamma production was observed
23 | KLICnETVEV (KLICNETVEV; not fully specified (residue 5); printed as KLICnETVEV) [SEQ ID NO: 77] | Potent IFN-gamma production was observed
24 | YLAYdETLNV (YLAYDETLNV; not fully specified (residue 5); printed as YLAYdETLNV) [SEQ ID NO: 73] | Potent IFN-gamma production was observed
